Measured values: patent US4594238A (Regents of University of Minnesota, priority 1984, dated 1986)
“Also recorded” adds a separate entry of the source. Like-named read-outs stand apart in the source and are kept apart here.

How the values were obtained:
Rat mammary tumor 13762 = assay: Comparative tumor response to DDP with and without NaDDTC rescue, Example 2; assay type: in vivo, Female F344 (Fischer) rats
Method: (§1) Female F344 (Fischer) rates, initial weight 100-150 g, were obtained from the Charles River Breeding Laboratory, Wilmington, MA. They were housed in methacrylate cages and given Purina rat chow and water ad libitum for at least one week. Lean weight of the rats were 150 g at the onset of experiments unless otherwise noted.
(§2) Mammary Tumor 13762 was obtained in the form of an implanted tumor in a female F344 rat. All intravenous injections were carried out under brief ether anesthesia.
Tumor inoculation was carried out as follows: two rats bearing tumors having a mean diameter of 2.5-3.5 cm were sacrificed using ether anesthesia. The tumors were excised immediately, finely minced, combined, and resuspended in 20-40 ml of normal saline. This suspension was filtered through a gauze pad to remove coarse pieces of tissue and the resulting suspension inoculated subcutaneously (0.2-0.5 ml/injection) into the left flank of each rat.

[1] = Comparative nephrotoxicity: low-dose i.v. vs high-dose i.p. NaDDTC rescue after DDP, Example 2; assay type: in vivo, Female F344 (Fischer) rats; conditions: for Kidney sections / Day 5 BUN (mean ±SEM) / Diarrhea / Weight loss on day 5: DDP 6 mg/kg i.v.
Method: as §1, §2

[2] = Protection of rats against DDP toxicity by i.p. NaDDTC (BUN, weight loss, diarrhea, histopathology), Example 1 / Table 1; assay type: in vivo, Male F344 (Fischer) rats; conditions: for Incidence of Diarrhea: DDP […] i.v.; for BUN / Weight Loss: Day 5, DDP […] i.v.
Source text: Male F344 (Fischer) rats (average weight, 150 g) were obtained from the Charles River Breeding Laboratory. They were divided into groups of four rats, placed in methacrylate cages, and given National Institute of Health chow for rodents and water ad lib, for 7 days. Average weight of the rats was 180 g (range, 160-200 g) when injected.
Tetraethylthiuram disulfide (disulfiram) was obtained from Sigma Chemical Co., St. Louis MO. […] Trav. Chim. 70:917 (1951); immediately prior to injection, it was dissolved in sterile water at a concentration of 100 mg/ml. Sodium bicarbonate was prepared in sterile water at a concentration of 50 mg/ml. All injections were carried out under brief ether anesthesia.
Otherwise, weight and BUN were determined at 5 days after injection, reportedly the time of maximal observed toxicity. Evidence of gastrointestinal toxicity was obtained qualitatively by noting the presence or absence of diarrhea 3-5 days after injection.
Randomly selected animals were sacrificed at 5 days after injection for study of histopathologic changes in the kidney and to note the presence or absence of hemorrhagic enteritis. Kidneys were removed, placed in Zenker's fixative, embedded in paraffin, sectioned at 6 μm, and stained with hematoxylin and eosin.

[3] = Reduction of toxicity (including bone marrow toxicity) of platinum compounds, Example 4; assay type: in vivo; conditions: platinum compounds of drawing 16, X=OH or H2O
[4] = test system: thyroid hormone production; conditions: cited from earlier work
[5] = thiourea administered prior to the platinum (II); cited from earlier work
Pt/DNA complexes = conditions: cited from earlier work
[6] = rats; cited from earlier work
[7] = cited from earlier work
[8] = Urinary excretion of free and conjugated DDTC; assay type: in vivo, rats; conditions: rat, urine, ip, 500 mg/kg, NaDDTC 500 mg/kg ip
Source text: Intravenous administration was explored in an attempt to deliver larger quantities of free DDTC anion to the likely site of toxicity in the renal tubule; urinary excretion of DDTC was monitored as a means of estimating changes in tubular levels of free DDTC. The standard assay for DDTC anion utilizes a spectrophotometric determination following reaction with cupric ion to form the colored Cu(DDTC)2 complex. Unfortunately, the affinity of cupric ion for sulfur ligands is such that this metal ion will catalyze the decomposition of the DDTC glucuronide and therefore will not discriminate between free and conjugated DDTC. Ferric ion does react selectively with the free ligand, thereby providing a convenient assay for both free and total DDTC in urine.
Excretion of free and conjugated NaDDTC in the urine of rats was measured as follows. NaDDTC was administered in selected doses via intraperitoneal or intravenous injection. Rats were then placed in metabolic cages and urine was collected and analyzed at 30 minute intervals. Urine samples (0.1-5.0 ml) were added to 2 ml of a solution containing ferric nitrate (20 mM) and sodium citrate (200 mM). The dark Fe (DDTC)3 complex was extracted into chloroform (4 ml) by vortexing for 5 minutes. The mixture was chilled, centrifuged for 1 minute, and the chloroform layer separated. To this chloroform solution was added saturated aqueous cupric sulfate (2 ml), and the mixture was vortexed for 5 minutes, chilled, and centrifuged for 1 minute. The chloroform solution was separated and the Cu(DDTC)2absorbance measured at 435 nm. Free DDTC was determined by comparison of absorbance to a standard curve. Total DDTC was determined by addition of 0. 05-1.0 ml of urine to 3 ml of saturated cupric sulfate followed by incubation at 45° for 30 minutes. The resulting Cu(DDTC)2 complex was extracted into chloroform and analyzed as described above. DDTC-glucuronide excretion was determined by subtraction of free from total DDTC.

[9] = DDP 2 mg/kg i.v., NaDDTC 100 mg/kg i.v.
[10] = DDP 2 mg/kg, DDTC 750 mg/kg ip 2 hours later
[11] = DDP 8 mg/kg with DDTC rescue 750 mg/kg ip
[12] = NaDDTC 100 mg/kg i.v. 2 hours after DDP
[13] = NaDDTC 750 mg/kg i.p. 2 hours after DDP
[14] = DDTC 500 mg/kg ip 1/2 hour after DDP, n=4
[15] = DDTC 500 mg/kg ip 1 hour after DDP, n=4
[16] = DDTC 500 mg/kg ip 2 hours after DDP, n=4
[17] = DDTC 750 mg/kg ip 0 hours after DDP, n=12
[18] = DDTC 750 mg/kg ip 3/4 hour after DDP, n=5
[19] = DDTC 750 mg/kg ip 1 hour after DDP, n=16
[20] = DDTC 750 mg/kg ip 2 hours after DDP, n=14
[21] = DDTC 750 mg/kg ip 3 hours after DDP, n=10
[22] = DDTC 750 mg/kg ip 4 hours after DDP, n=7
[23] = DDTC 750 mg/kg ip 6 hours after DDP, n=5
[24] = DDTC 750 mg/kg ip at -1/2 hour (30 minutes before DDP), n=4
[25] = DDTC 750 mg/kg ip, rescue time printed 11/2 hours after DDP, n=15
[26] = NaDDTC administered between 1 and 4 hours after DDP
[27] = NaDDTC immediately after DDP (time=0 hour)

CCN(CC)C(=S)[S-].[Na+] [DDTC, sodium diethyldithiocarbamate]
Adverse effects on tumor response to DDP (Rat mammary tumor 13762; [9]): no adverse effects
Initial response, control vs intravenous rescue group (Rat mammary tumor 13762; [9]): Initial response was identical in both groups
Rats with relapse between days 25 and 30 (Rat mammary tumor 13762; DDP 2 mg/kg i.v., NaDDTC 100 mg/kg i.v. 2 hours after DDP, n=8): 2/8
Other (non-relapsed) rats through day 50 (Rat mammary tumor 13762; DDP 2 mg/kg i.v., NaDDTC 100 mg/kg i.v., n=8): essentially free of tumor through day 50
Minimum tumor diameter, day 23 (Rat mammary tumor 13762; DDP 2 mg/kg i.v., NaDDTC 750 mg/kg i.p. 2 hours after DDP, n=11): 1.3 cm
Rats with relapse by day 30 (Rat mammary tumor 13762; DDP 2 mg/kg i.v., NaDDTC 750 mg/kg i.p., n=11): 9/11
Mean tumor diameter by day 30 (Rat mammary tumor 13762; DDP 2 mg/kg i.v., NaDDTC 750 mg/kg i.p., relapsed rats): 2.2 cm
Disappearance of tumor (Rat mammary tumor 13762; [10]): disappearance of tumor was not observed
Initial response versus unrescued group (Rat mammary tumor 13762; [10]): identical to that of the unrescued group
Mean minimum tumor diameter at day 21 (Rat mammary tumor 13762; [10]): 1.2 cm
Mean tumor diameter at day 30 (Rat mammary tumor 13762; [10]): 3.0 cm
Relapse and subsequent tumor growth versus no rescue (Rat mammary tumor 13762; [10]): earlier onset of relapse and more rapid subsequent tumor growth
Deaths (Rat mammary tumor 13762; [11]): no deaths
Tumor-free rats by day 28 (Rat mammary tumor 13762; [11]): 1/8
Initial tumor response with or without NaDDTC rescue (Rat mammary tumor 13762; DDP 2, 4, and 8 mg/kg, NaDDTC 750 mg/kg ip): identical with or without NaDDTC rescue
Tumor response at DDP 4 and 8 mg/kg versus 2 mg/kg (Rat mammary tumor 13762; DDP 4 and 8 mg/kg, DDTC rescue 750 mg/kg ip): Qualitatively similar results
Local recurrence and tumor growth (Rat mammary tumor 13762; NaDDTC 750 mg/kg ip): locally recurring tumors recur earlier and grow more rapidly; also recorded: local recurrence commenced earlier and tumors grew more rapidly
Effect of ip rescue on initial tumor response (Rat mammary tumor 13762; ip route of rescue): does not seem to have any significant adverse effect upon initial tumor response
Kidney sections ([1]; NaDDTC 100 mg/kg i.v.): mild hydropic changes with occasional evidence of degeneration
Day 5 BUN (mean ±SEM) [1, 12]: 43±5 milligrams per deciliter
Diarrhea [1, 12]: not observed
Weight loss on day 5 [1, 12]: 14%
Kidney sections ([1]; NaDDTC 750 mg/kg i.p.): mild hydropic changes with occasional evidence of degeneration
Day 5 BUN (mean ±SEM) [1, 13]: 73±4 milligrams per deciliter
Diarrhea [1, 13]: not observed
Weight loss on day 5 [1, 13]: 9%
Inhibition of platinum-induced nephrotoxicity ([1]; administered intravenously): effectively inhibit platinum-induced nephrotoxicity without deleterious effects on tumor response
Protection against nephrotoxicity, intravenous vs intraperitoneal ([1]; low-dose i.v. vs. high-dose i.p. DDTC rescue): essentially equivalent for both routes
Incidence of Diarrhea ([2]; DDTC 750 mg/kg ip 0 hours after DDP): 0/6
Incidence of Diarrhea ([2]; DDTC 750 mg/kg ip 3/4 hour after DDP): 0/5
Incidence of Diarrhea ([2]; DDTC 750 mg/kg ip 1 hour after DDP): 0/8
Incidence of Diarrhea ([2]; DDTC 750 mg/kg ip 2 hours after DDP): 0/14
Incidence of Diarrhea ([2]; DDTC 750 mg/kg ip 6 hours after DDP): 2/5
Incidence of Diarrhea ([2]; DDTC 750 mg/kg ip 6 hours after DDP, listed as NaDDTC): two of the five
BUN [2, 14]: 152 ± 20 mg/dL
Weight Loss [2, 14]: 4 ± 2%
BUN [2, 15]: 90 ± 5 mg/dL
Weight Loss [2, 15]: 4 ± 1%
BUN [2, 16]: 72 ± 11 mg/dL
Weight Loss [2, 16]: 2 ± 2%
BUN [2, 17]: 214 ± 21 mg/dL
Weight Loss [2, 17]: 9 ± 1%
BUN [2, 18]: 56 ± 9 mg/dL
Weight Loss [2, 18]: 8 ± 2%
BUN [2, 19]: 63 ± 4 mg/dL
Weight Loss [2, 19]: 13 ± 1%
BUN [2, 20]: 95 ± 9 mg/dL
Weight Loss [2, 20]: 15 ± 1%
BUN [2, 21]: 77 ± 8 mg/dL
Weight Loss [2, 21]: 10 ± 1%
BUN [2, 22]: 106 ± 8 mg/dL
Weight Loss [2, 22]: 14 ± 1%
BUN [2, 23]: 209 ± 44 mg/dL
Weight Loss [2, 23]: 18 ± 2%
BUN [2, 24]: 418 ± 43 mg/dL
Weight Loss [2, 24]: 18 ± 1%
BUN [2, 25]: 62 ± 3 mg/dL
Weight Loss [2, 25]: 5 ± 1%
Reduction in BUN or weight loss ([2]; NaDDTC 6 hours after DDP): failed to demonstrate significant reduction either in BUN or weight loss
Rescue efficacy ([2]; NaDDTC 6 hours after DDP): only minimal rescue efficacy (if any)
Diarrhea [2, 26]: Diarrhea was not observed
Kidney sections, histopathology [2, 26]: barely discernible pale band of mild tubule degeneration in the outer zone of the outer medullary stripe
Necropsy, small intestine [2, 26]: grossly normal small intestine
Reduction in BUN and weight loss [2, 26]: Marked reduction
Decrease in weight loss [2, 27]: significant decrease in weight loss
Reduction of BUN levels [2, 27]: without reduction of BUN levels
Protection from nephrotoxic effects of DDP ([2]; NaDDTC ip 500-750 mg/kg, DDP doses as high as 8 mg/kg): would afford protection from the nephrotoxic effects of DDP
Reducing the toxicity (including bone marrow toxicity) of platinum compounds [3]: effective in reducing the toxicity (including bone marrow toxicity)

NC(N)=S [thiourea]
Inhibition of thyroid hormone production [4]: reported to inhibit thyroid hormone production
Efficacy of platinum (II) [5]: Decreased efficacy of platinum (II)
Reversal of Pt/DNA complexing (Pt/DNA complexes): does reverse Pt/DNA complexing

CCN(CC)C(=S)[S][Na]
LD50 [6]: at least 1,500 mg/kg
Solubility in alcohol ([7]; alcohol): also soluble in alcohol
Solubility in water ([7]; water): highly soluble in water, e.g. in molar quantities
dose excreted at 2 h ([8]; within 2 hours, read-out: Free ligand in urine, of the initial dose): < 0.1%
dose excreted at 2 h ([8]; read-out: Total DDTC excreted by the kidneys within 2 hours, of the dose given): 18 to 20%
